How the values were obtained:
Assay in all cases: kinase panel
Format in all cases: biochemical
[1] = target: ACK1(h) (Homo sapiens, UniProt Q07912)
Summary of the method: (§1)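 % inhibition read-out; kinome panel of 231 kinases; one analogue run on a selected 98-kinase subset only.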

[2] = target: ALK(h) (Homo sapiens, UniProt Q9UM73)
Summary of the method: as §1

[3] = target: AMPKα1(h) (Homo sapiens, UniProt Q13131)
Summary of the method: as §1

[4] = target: T1, Aurora-A(h) (Homo sapiens, UniProt O14965)
T1 sequence (O14965 1-403): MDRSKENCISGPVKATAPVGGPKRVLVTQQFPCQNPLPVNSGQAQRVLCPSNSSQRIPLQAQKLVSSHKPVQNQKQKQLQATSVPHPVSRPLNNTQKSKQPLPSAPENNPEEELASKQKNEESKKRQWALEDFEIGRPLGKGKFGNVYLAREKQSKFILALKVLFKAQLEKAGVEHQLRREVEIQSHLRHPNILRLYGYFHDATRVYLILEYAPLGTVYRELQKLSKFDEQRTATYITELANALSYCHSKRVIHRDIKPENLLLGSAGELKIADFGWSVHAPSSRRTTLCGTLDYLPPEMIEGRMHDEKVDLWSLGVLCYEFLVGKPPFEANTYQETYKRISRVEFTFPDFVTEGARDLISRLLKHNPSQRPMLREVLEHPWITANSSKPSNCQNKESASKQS
Summary of the method: as §1

[5] = target: BRK(h) (Homo sapiens, UniProt Q13882)
Summary of the method: as §1

[6] = target: CDK7/cyclinH/MAT1(h) (Homo sapiens, UniProt P50613)
Summary of the method: as §1

[7] = target: CaMKIIγ(h) (Homo sapiens, UniProt Q13555)
Summary of the method: as §1

[8] = target: T2, CaMKIV(h) (Homo sapiens, UniProt Q16566)
T2 sequence (Q16566 1-473): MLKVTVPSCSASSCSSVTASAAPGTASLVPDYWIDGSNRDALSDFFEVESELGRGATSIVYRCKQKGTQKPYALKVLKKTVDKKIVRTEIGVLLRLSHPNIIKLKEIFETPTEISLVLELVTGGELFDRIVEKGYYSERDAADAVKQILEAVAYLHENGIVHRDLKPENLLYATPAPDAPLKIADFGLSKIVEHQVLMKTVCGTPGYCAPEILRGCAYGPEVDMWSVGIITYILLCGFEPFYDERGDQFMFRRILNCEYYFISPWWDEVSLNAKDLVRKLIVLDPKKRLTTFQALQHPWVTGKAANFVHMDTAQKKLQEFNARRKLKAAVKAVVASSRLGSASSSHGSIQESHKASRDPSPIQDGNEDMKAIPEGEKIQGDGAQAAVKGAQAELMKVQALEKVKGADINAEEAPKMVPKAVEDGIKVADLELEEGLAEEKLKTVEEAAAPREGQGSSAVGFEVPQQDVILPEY
Summary of the method: as §1

[9] = target: Flt4(h) (Homo sapiens, UniProt P35916)
Summary of the method: as §1

[10] = target: Met(h) (Homo sapiens, UniProt P08581)
Met(h), sequence (P08581 25-1390): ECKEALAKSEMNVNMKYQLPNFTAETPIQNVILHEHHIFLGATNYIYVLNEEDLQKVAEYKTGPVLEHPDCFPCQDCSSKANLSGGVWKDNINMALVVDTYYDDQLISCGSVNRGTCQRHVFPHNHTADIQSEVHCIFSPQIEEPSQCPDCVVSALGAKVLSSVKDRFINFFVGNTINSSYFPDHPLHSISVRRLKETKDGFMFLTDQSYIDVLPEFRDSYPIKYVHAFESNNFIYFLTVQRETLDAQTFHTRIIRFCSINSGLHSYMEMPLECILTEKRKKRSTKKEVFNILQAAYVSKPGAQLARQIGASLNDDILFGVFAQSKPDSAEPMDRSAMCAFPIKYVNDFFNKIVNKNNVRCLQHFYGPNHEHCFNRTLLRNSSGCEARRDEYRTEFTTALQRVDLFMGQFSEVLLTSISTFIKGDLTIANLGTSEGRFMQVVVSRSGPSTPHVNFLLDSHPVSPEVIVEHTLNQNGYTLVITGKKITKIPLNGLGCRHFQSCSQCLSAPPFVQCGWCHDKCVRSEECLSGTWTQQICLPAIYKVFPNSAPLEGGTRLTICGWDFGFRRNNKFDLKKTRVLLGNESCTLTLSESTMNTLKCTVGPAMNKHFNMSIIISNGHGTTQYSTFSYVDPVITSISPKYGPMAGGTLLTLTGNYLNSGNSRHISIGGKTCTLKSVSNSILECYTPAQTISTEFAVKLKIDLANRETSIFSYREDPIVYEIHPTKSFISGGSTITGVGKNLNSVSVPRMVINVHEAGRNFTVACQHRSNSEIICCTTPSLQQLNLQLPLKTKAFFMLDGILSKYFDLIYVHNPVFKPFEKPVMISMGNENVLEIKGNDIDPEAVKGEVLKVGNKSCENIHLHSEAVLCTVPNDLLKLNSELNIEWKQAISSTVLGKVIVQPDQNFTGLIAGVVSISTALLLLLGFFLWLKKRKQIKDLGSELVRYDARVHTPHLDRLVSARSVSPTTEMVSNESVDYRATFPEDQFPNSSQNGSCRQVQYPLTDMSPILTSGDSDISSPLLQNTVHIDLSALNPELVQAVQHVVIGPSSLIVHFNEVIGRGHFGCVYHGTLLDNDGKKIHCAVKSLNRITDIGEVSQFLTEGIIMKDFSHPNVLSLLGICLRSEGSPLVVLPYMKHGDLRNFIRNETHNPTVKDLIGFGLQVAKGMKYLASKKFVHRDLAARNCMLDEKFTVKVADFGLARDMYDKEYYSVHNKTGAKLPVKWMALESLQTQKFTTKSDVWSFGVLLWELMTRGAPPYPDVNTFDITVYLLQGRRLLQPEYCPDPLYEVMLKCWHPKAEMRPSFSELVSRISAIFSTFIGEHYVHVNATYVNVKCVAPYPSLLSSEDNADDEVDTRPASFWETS
Summary of the method: as §1

[11] = target: T3, NEK2(h) (Homo sapiens, UniProt P51955)
T3 sequence (P51955 1-445): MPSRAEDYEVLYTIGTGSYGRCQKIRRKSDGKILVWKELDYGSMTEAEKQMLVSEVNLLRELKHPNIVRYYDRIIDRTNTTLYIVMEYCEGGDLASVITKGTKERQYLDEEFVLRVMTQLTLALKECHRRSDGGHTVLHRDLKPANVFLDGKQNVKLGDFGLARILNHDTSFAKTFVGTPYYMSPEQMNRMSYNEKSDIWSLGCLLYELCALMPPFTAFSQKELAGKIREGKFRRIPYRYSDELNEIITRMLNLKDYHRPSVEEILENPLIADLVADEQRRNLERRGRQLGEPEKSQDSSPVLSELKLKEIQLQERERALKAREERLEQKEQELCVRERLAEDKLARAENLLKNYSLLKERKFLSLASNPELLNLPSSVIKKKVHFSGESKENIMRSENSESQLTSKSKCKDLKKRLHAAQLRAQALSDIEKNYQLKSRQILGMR
Summary of the method: as §1

[12] = target: PAR-1Bα(h) (Homo sapiens, UniProt Q7KZI7)
PAR-1Bα(h), sequence (Q7KZI7 whole entry): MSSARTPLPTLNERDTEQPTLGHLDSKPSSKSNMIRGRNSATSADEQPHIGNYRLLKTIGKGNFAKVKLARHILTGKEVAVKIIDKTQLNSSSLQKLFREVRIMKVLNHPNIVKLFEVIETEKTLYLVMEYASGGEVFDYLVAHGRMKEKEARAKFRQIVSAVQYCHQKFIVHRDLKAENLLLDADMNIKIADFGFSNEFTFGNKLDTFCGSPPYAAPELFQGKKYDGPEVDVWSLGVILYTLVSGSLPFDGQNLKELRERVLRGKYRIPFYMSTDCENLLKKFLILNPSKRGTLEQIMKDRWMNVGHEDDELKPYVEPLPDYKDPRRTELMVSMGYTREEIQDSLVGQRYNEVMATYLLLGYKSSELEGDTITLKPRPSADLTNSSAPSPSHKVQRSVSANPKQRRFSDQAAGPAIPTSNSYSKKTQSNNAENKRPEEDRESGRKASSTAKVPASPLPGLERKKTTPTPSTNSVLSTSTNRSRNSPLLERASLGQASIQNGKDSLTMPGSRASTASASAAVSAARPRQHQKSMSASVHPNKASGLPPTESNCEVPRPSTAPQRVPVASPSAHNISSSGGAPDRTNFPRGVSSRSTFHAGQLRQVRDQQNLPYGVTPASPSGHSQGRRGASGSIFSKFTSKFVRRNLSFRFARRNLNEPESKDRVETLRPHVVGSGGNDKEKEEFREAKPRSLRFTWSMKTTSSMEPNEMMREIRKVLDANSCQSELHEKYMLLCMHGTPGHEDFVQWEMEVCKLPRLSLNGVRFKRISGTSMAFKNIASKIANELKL
Summary of the method: as §1

[13] = target: PDGFRβ(h) (Homo sapiens, UniProt P09619)
PDGFRβ(h), sequence (P09619 33-1106): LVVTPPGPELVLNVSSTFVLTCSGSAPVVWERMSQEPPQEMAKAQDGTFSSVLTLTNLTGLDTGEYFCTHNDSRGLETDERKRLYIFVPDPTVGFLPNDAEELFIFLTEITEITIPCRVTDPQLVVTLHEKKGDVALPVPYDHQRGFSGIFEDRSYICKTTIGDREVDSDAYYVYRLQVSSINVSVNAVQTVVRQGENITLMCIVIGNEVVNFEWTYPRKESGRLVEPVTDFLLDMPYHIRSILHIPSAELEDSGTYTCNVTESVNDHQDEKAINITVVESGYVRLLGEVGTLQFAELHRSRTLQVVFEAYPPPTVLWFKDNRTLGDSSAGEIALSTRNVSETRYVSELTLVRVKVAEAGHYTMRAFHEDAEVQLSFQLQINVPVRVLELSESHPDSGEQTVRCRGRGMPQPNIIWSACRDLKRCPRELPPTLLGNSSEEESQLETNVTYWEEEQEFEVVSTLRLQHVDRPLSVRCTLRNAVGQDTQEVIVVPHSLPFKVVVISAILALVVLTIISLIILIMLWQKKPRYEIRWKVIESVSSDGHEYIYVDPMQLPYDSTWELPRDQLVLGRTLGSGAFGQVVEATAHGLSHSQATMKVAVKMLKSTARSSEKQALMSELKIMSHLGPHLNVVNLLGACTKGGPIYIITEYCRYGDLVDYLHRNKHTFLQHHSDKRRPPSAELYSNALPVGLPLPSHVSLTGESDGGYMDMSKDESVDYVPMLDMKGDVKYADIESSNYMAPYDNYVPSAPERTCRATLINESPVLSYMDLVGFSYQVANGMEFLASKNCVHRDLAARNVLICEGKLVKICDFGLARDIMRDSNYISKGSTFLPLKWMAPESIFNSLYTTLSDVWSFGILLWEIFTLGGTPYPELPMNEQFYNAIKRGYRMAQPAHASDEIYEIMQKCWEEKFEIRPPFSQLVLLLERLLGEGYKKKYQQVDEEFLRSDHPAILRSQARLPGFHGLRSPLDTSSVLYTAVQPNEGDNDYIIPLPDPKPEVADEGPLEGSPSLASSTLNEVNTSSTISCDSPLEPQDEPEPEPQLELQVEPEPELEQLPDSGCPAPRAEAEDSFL
Summary of the method: as §1

[14] = target: PKBα(h) (Homo sapiens, UniProt P31749)
PKBα(h), sequence (P31749 whole entry): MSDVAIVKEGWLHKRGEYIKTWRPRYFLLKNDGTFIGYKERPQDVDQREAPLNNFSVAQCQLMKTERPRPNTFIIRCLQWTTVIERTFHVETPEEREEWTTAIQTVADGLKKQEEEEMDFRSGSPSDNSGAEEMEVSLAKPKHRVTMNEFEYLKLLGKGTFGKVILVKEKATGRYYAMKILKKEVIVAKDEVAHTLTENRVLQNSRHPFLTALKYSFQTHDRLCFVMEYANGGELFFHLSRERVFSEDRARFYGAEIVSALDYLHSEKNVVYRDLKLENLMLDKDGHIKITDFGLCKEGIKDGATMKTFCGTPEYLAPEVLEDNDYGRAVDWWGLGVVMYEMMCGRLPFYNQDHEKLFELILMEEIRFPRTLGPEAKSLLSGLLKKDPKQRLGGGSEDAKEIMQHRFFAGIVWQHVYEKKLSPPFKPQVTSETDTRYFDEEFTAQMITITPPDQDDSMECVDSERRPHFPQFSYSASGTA
Summary of the method: as §1

[15] = target: T4, PRAK(h) (Homo sapiens, UniProt Q8IW41)
T4 sequence (Q8IW41 1-473): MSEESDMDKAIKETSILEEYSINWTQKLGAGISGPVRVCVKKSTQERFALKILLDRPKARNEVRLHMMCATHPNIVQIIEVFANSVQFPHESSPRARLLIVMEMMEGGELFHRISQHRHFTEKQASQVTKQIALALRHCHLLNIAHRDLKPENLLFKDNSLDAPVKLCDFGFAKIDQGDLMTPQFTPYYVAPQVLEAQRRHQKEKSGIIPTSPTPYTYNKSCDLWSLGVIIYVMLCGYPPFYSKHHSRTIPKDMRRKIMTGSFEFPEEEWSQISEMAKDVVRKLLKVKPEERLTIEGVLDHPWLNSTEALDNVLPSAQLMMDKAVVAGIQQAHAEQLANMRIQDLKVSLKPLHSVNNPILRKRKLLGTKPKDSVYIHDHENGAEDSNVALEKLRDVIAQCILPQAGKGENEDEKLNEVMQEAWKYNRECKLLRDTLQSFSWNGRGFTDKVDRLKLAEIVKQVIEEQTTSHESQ
Summary of the method: as §1

[16] = target: ROCK-II(h) (Homo sapiens, UniProt O75116)
Summary of the method: as §1

[17] = target: Syk(h) (Homo sapiens, UniProt P43405)
Summary of the method: as §1

[18] = target: TrkB(h) (Homo sapiens, UniProt Q16620)
Summary of the method: as §1

ACK1(h), sequence (Q07912 whole entry): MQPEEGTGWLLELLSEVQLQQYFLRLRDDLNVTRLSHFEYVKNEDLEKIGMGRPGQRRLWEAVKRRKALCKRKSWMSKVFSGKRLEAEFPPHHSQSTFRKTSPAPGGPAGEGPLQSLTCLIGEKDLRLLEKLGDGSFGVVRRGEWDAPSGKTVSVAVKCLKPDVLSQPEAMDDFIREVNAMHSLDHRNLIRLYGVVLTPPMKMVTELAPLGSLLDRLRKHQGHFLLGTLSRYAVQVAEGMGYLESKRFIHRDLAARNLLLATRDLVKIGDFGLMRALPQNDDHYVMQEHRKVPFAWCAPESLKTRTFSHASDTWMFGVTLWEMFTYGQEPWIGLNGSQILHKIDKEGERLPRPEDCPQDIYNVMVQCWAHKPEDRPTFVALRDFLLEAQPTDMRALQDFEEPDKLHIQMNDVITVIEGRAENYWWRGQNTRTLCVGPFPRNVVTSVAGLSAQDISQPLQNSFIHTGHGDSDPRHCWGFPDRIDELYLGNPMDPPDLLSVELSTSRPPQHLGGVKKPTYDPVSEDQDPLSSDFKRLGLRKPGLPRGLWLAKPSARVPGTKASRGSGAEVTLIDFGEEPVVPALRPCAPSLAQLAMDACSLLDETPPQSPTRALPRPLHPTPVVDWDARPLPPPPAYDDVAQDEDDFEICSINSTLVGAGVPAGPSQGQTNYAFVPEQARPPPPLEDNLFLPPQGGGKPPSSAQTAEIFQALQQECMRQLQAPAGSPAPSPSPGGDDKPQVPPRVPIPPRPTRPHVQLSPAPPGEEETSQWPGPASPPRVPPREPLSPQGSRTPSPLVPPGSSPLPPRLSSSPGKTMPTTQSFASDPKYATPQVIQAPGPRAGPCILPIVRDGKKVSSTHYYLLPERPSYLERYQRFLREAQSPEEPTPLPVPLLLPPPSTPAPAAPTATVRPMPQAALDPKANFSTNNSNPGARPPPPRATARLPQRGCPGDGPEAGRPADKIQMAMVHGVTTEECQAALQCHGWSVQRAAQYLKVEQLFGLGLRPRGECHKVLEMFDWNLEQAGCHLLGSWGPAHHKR

Row | inhibition at 1 µM [1] [%] | inhibition at 1 µM [2] [%] | inhibition at 1 µM [3] [%] | inhibition at 1 µM [4] [%] | inhibition at 1 µM [5] [%] | inhibition at 1 µM [6] [%] | inhibition at 1 µM [7] [%] | inhibition at 1 µM [8] [%] | inhibition at 1 µM [9] [%] | inhibition at 1 µM [10] [%] | inhibition at 1 µM [11] [%] | inhibition at 1 µM [12] [%] | inhibition at 1 µM [13] [%] | inhibition at 1 µM [14] [%] | inhibition at 1 µM [15] [%] | inhibition at 1 µM [16] [%] | inhibition at 1 µM [17] [%] | inhibition at 1 µM [18] [%] | Compound
1 | 83 | 56 | 23 | 88 | 46 | 85 | 93 | 4 | 97 | 61 | 5 | 86 | 14 | 8 | 97 | 89 | 77 | 65 | Nc1n[nH]c2ccc(-c3ccnc4[nH]c(-c5ccccc5)cc34)cc12 [Compound 4]
2 | 41 | 27 | -7 | 52 | 17 | 37 | 84 | 6 | 63 | 14 | 4 | 29 | 1 | 10 | 91 | 58 | 32 | -37 | Nc1n[nH]c2ccc(-c3ccnc4[nH]c(-c5cccc(OCc6ccccc6)c5)cc34)cc12 [Compound 5r [SU1261]]
3 | 17 | 5 | -5 | 36 | 8 | 14 | 46 | -9 | 43 | -3 | 8 | 20 | -14 | 4 | 44 | 25 | 25 | -34 | Nc1n[nH]c2ccc(-c3ccnc4[nH]c(-c5ccnc(OCc6ccccc6)c5)cc34)cc12 [Compound 6g [SU1349]]
